Source: patent US10253039B2, “Inhibitors of bacterial DNA gyrase with efficacy against gram-negative bacteria” (priority 2014, dated 2019)
≈ marks a conversion by molar mass, not a printed value.

Experiments:
[1] = test system: E. coli BW25113 ΔtolC cipR isolate GyrA Asp87Gly; experiment: MIC against ciprofloxacin-resistant mutant; conditions: Escherichia coli, BW25113
Description: (§1) A microdilution method in 96-well plates was used and the MIC protocol established by the Clinical Laboratory Standards Institute was followed. From a growing subculture, a 1:10000 inoculum of each strain in Luria-Bertani media was prepared and aliquoted 100 μL in 4 columns of wells, except for the top row wells, which contained 200 μL of inoculum. […] The liquid in each of wells was mixed with a multi-channel pipet and 100 μL was transferred to the next well and mixed. The 2-fold dilution was continued down the 96-well plate until 100 μL was left, which was discarded. The plates were incubated at 37° C. with shaking for 16-18 hours. The MIC was determined as the lowest concentration that inhibited growth and had no turbidity by visual inspection.

[2] = test system: ciprofloxacin resistant strains of E. coli; experiment: MIC against ciprofloxacin resistant strains compared to parent strain; conditions: ratio to MIC of parent strain E. coli BW25113 ΔtolC
Description: as §1

Shigella boydii = experiment: MIC, microdilution in 96-well plates
[3] = test system: E. coli BW25113 ΔtolC gyrR isolate GyrB Thr508Met; experiment: MIC against gyramide-resistant mutant; conditions: Escherichia coli, BW25113
Description: as §1

[4] = test system: E. coli BW25113 ΔtolC cipR isolate GyrB Ser464Phe; experiment: MIC against ciprofloxacin-resistant mutant; conditions: Escherichia coli, BW25113
Description: as §1

Klebsiella pneumonia = experiment: MIC, microdilution in 96-well plates; conditions: Klebsiella pneumoniae
E. coli BW25113 ΔtolC = experiment: MIC, microdilution in 96-well plates; conditions: Escherichia coli
E. coli DNA gyrase = E. coli DNA gyrase (Escherichia coli, UniProt P0AES4+P0AES6); experiment: DNA gyrase gel shift assay; conditions: IC50 against E. coli DNA gyrase, WT Gyrase
Sequence of E. coli DNA gyrase (P0AES4 whole entry, one chain of several): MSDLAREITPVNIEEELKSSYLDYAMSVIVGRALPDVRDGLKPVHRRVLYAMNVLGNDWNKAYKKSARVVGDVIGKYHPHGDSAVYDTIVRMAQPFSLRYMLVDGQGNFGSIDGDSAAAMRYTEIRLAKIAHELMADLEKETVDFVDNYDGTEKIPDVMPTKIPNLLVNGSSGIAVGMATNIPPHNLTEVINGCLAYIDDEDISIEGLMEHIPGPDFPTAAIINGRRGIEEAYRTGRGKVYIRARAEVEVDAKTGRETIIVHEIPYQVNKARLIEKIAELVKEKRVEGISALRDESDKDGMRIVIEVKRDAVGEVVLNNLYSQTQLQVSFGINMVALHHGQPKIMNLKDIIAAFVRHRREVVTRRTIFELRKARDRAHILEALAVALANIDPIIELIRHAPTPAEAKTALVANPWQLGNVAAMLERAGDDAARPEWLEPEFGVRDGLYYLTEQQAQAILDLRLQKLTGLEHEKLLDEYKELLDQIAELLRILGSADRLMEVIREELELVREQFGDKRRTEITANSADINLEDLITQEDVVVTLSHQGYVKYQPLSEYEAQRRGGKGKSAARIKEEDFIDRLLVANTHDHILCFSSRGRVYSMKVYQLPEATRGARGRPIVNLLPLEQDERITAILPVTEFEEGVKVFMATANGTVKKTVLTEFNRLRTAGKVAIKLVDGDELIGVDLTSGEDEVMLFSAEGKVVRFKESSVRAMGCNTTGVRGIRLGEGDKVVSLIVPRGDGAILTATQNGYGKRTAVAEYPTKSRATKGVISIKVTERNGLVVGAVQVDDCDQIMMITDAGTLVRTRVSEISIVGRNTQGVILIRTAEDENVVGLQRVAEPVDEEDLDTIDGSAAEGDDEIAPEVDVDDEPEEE

[5] = test system: E. coli BW25113 ΔtolC cipR isolate GyrA Asp87Tyr; experiment: MIC against ciprofloxacin-resistant mutant; conditions: Escherichia coli, BW25113
Description: as §1

Salmonella typhimurium = experiment: MIC, microdilution in 96-well plates; conditions: Salmonella enterica
wild-type E. coli = experiment: Killing / inhibition of wild-type E. coli; type: cell-based, Escherichia coli
Description: The compounds of the invention are observed to inhibit wild-type E. coli.

N#Cc1cccc(S(=O)(=O)N[C@@H]2CCN(Cc3ccc(-c4ccccc4)cc3)C2)c1 [Gyramide C2, gyramide C2]
MIC [1]: 0.8 µM (≈ 0.334 µg/mL)
MIC against ciprofloxacin resistant strains compared to the parent strain [2]: 4-8 times
MIC (Shigella boydii; with PAβN (60 μM)): 1.25 µM (≈ 0.522 µg/mL)
MIC (Shigella boydii; without PAβN): 80 µM (≈ 33.4 µg/mL)
MIC [3]: 25.6 µM (≈ 10.7 µg/mL)
MIC [4]: 0.4 µM (≈ 0.167 µg/mL)
MIC (Klebsiella pneumonia; with PAβN (60 μM)): 20 µM (≈ 8.35 µg/mL)
MIC (Klebsiella pneumonia; without PAβN): > 640 µM
MIC (E. coli BW25113 ΔtolC; BW25113, E. coli BW25113 ΔtolC (parent strain), Table 4): 0.1 µM (≈ 0.0418 µg/mL)
MIC (E. coli BW25113 ΔtolC; BW25113, E. coli BW25113 ΔtolC (parent strain), Table 5): 0.1 µM (≈ 0.0418 µg/mL)
MIC (E. coli BW25113 ΔtolC; BW25113, E. coli BW25113 ΔtolC, without PAβN, Table 3): 0.25 µM (≈ 0.104 µg/mL)
IC50 (E. coli DNA gyrase; Average of 3 trials): 122 ± 39.2 nM
IC50 (E. coli DNA gyrase; Trial 1): 84.5 nM
IC50 (E. coli DNA gyrase; Trial 2): 119 nM
IC50 (E. coli DNA gyrase; Trial 3): 163 nM
MIC [5]: 0.8 µM (≈ 0.334 µg/mL)
MIC (Salmonella typhimurium; with PAβN (60 μM)): 2.5 µM (≈ 1.04 µg/mL)
MIC (Salmonella typhimurium; without PAβN): > 640 µM
concentration observed to kill wild-type E. coli (wild-type E. coli): 20 µM
